Results taken from the NIST ThermoML archive (doi:10.1021/acs.jced.5b00242).

Columns and labels:
[1] = xn = mol fraction of the nth substance listed; details: 101 kPa, Liquid; for viscosity: Stabinger viscometer; for mass density: Vibrating tube method
[2] = refractive index (Na D-line) (dimensionless); xn = mol fraction of the nth substance listed; details: 101 kPa, Liquid, Standard Abbe refractometry

CCn1cc[n+](C)c1.NCC(=O)[O-] [1-ethyl-3-methylimidazolium ammonioacetate] + CCn1cc[n+](C)c1.N#C[C-](C#N)C#N
Details	mass density, [1] [kg/m3]	refractive index, [2]	viscosity, [1] [mPa·s]
293.15 K, x2 = 0	1164.3	1.52134	240.18
293.15 K, x2 = 0.2498	1140.2	1.52032	94.03
293.15 K, x2 = 0.5001	1118.4	1.51815	53.98
293.15 K, x2 = 0.7501	1101.2	1.51562	29.05
298.15 K, x2 = 0	1161.2	1.51997	171.97
298.15 K, x2 = 0.2498	1136.9	1.51892	70.85
298.15 K, x2 = 0.5001	1115	1.51656	42.14
298.15 K, x2 = 0.7501	1097.8	1.51399	23.45
303.15 K, x2 = 0	1158.1	1.5186	126.19
303.15 K, x2 = 0.2498	1133.7	1.51743	54.7
303.15 K, x2 = 0.5001	1111.7	1.51505	33.55
303.15 K, x2 = 0.7501	1094.4	1.51238	19.43
308.15 K, x2 = 0	1155	1.51724	95.04
308.15 K, x2 = 0.2498	1130.5	1.51596	43.19
308.15 K, x2 = 0.5001	1108.4	1.51355	27.19
308.15 K, x2 = 0.7501	1091	1.5108	16.35
313.15 K, x2 = 0	1152	1.51585	73.5
313.15 K, x2 = 0.2498	1127.3	1.51457	34.81
313.15 K, x2 = 0.5001	1105.2	1.51205	22.25
313.15 K, x2 = 0.7501	1087.7	1.50922	13.9
318.15 K, x2 = 0	1149	1.5145	57.66
318.15 K, x2 = 0.2498	1124.3	1.51315	28.43
318.15 K, x2 = 0.5001	1102.1	1.51057	18.69
318.15 K, x2 = 0.7501	1084.4	1.50764	12.02
323.15 K, x2 = 0	1146	1.51313	46.21
323.15 K, x2 = 0.2498	1121.1	1.51173	23.59
323.15 K, x2 = 0.5001	1098.9	1.50908	15.89
323.15 K, x2 = 0.7501	1081	1.50609	10.47
328.15 K, x2 = 0	1143	1.51179	37.66
328.15 K, x2 = 0.2498	1118	1.51031	19.87
328.15 K, x2 = 0.5001	1095.7	1.5076	13.84
328.15 K, x2 = 0.7501	1077.7	1.50449	9.21
333.15 K, x2 = 0	1139.9	1.51041	31.24
333.15 K, x2 = 0.2498	1114.8	1.5089	16.92
333.15 K, x2 = 0.5001	1092.5	1.50613	11.88
333.15 K, x2 = 0.7501	1074.5	1.50295	8.12
338.15 K, x2 = 0	1136.9	1.50904	26.08
338.15 K, x2 = 0.2498	1111.7	1.50751	14.58
338.15 K, x2 = 0.5001	1089.3	1.50462	10.47
338.15 K, x2 = 0.7501	1071.2	1.50143	7.29
343.15 K, x2 = 0	1133.8	1.50769	22.11
343.15 K, x2 = 0.2498	1108.6	1.50614	12.67
343.15 K, x2 = 0.5001	1086.1	1.50315	9.233
343.15 K, x2 = 0.7501	1068	1.49987	6.55
348.15 K, x2 = 0	1130.7	1.50637	18.95
348.15 K, x2 = 0.2498	1105.5	1.50472	11.1
348.15 K, x2 = 0.5001	1082.9	1.5017	8.191
348.15 K, x2 = 0.7501	1064.7	1.49834	5.92
353.15 K, x2 = 0	1127.4	1.50495	16.45
353.15 K, x2 = 0.2498	1102.4	1.50334	9.77
353.15 K, x2 = 0.5001	1079.7	1.50021	7.189
353.15 K, x2 = 0.7501	1061.5	1.49682	5.35
